Data reported in the supplement of paper PMC8967900.

Columns and labels:
Experiment in all cases: selective drug sensitivity score (sDSS, relative to normal bone marrow) (sDSS (score)); higher = more potent and effective on the cell line relative to normal bone marrow cells
Details in all cases: 72 h
MN-60 = system: MN-60
LC4-1 = system: LC4-1
PEER = system: PEER
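Further: ALL cell lines in 384-well plates, five doses spanning 10,000-fold, each plate scaled between vehicle and 100 µmol/L benzalkonium chloride controls, sDSS an adapted area-under-curve metric.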

SMILES	selective drug sensitivity score (MN-60)	selective drug sensitivity score (LC4-1)	selective drug sensitivity score (PEER)
Cc1ccc(C(=O)Nc2cccc(C(F)(F)F)c2)cc1Nc1nc(-c2cccnc2)nc2c1cnn2C [NVP-BHG712] (top concentration 10000 nM)	0.68	3.38	8.18
COc1ccc(S(=O)(=O)Nc2cccnc2Nc2ccc(O)cc2)cc1 [ABT-751] (top concentration 10000 nM)	5.42	11.7	15.5
Nc1ncnc2c1nc(Cl)n2[C@@H]1O[C@H](CO)[C@@H](O)[C@H]1O [8-chloro-adenosine] (top concentration 50000 nM)	-2.8	2.9	0.5
N[C@@H]1CCCN(c2c(/C=C3\SC(=O)NC3=O)cccc2-c2ccccc2)C1 [AZD1208] (top concentration 10000 nM)	-1.8	-3.8	-2.7
CC(C)C[C@H](NC(=O)CNC(=O)c1cc(Cl)ccc1Cl)B(O)O [Ixazomib] (top concentration 1000 nM)	-1.84	6.46	7.66
CC(C)c1c(C(=O)Nc2ccccc2)c(-c2ccccc2)c(-c2ccc(F)cc2)n1CC[C@@H](O)C[C@@H](O)CC(=O)O [Atorvastatin] (top concentration 10000 nM)	-2.5	4.9	2
O=C(CCCCCCC(=O)Nc1ccc([C@H]2O[C@@H](CSc3nc(-c4ccccc4)c(-c4ccccc4)o3)C[C@@H](c3ccc(CO)cc3)O2)cc1)NO [Tubacin] (top concentration 10000 nM)	5.44	7.14	7.14
Cc1cc2c(C(C)C)c(O)c(O)c(C=O)c2c(O)c1-c1c(C)cc2c(C(C)C)c(O)c(O)c(C=O)c2c1O [AT-101] (top concentration 100000 nM)	3.28	9.28	4.18
CCc1cnn2c(NCc3ccc[n+]([O-])c3)cc(N3CCCC[C@H]3CCO)nc12 [Dinaciclib] (top concentration 1000 nM)	-7.74	-3.64	-0.24
CN1CCc2c(c3ccccc3n2Cc2ccc(C(=O)NO)cc2)C1 [Tubastatin_A] (top concentration 10000 nM)	2.16	6.76	3.36
Cn1c(Nc2ccc(C(F)(F)F)cc2)nc2cc(Oc3ccnc(-c4ncc(C(F)(F)F)[nH]4)c3)ccc21 [NVP-RAF265] (top concentration 1000 nM)	-0.22	7.48	9.78
CCN1CCN(Cc2ccc(Nc3ncc(F)c(-c4cc(F)c5nc(C)n(C(C)C)c5c4)n3)nc2)CC1 [Abemaciclib] (top concentration 2500 nM)	-8.16	2.94	-1.96
Cc1nc(-c2cn3c(n2)-c2ccc(-c4cnn(C(C)(C)C(N)=O)c4)cc2OCC3)n(C(C)C)n1 [Taselisib] (top concentration 1000 nM)	-0.4	-2.2	-4.3
CC(C)c1cc(C(=O)N2Cc3ccc(CN4CCN(C)CC4)cc3C2)c(O)cc1O [Onalespib] (top concentration 2500 nM)	-0.48	3.22	0.52
C=CC(=O)N1CCC[C@@H](n2nc(-c3ccc(Oc4ccccc4)cc3)c3c(N)ncnc32)C1 [Ibrutinib] (top concentration 1000 nM)	0	1	0.6
Cc1cn(-c2cc(NC(=O)c3ccc(C)c(Nc4nccc(-c5cnccn5)n4)c3)cc(C(F)(F)F)c2)cn1 [Radotinib] (top concentration 10000 nM)	0.4	13.8	19.3
CC1CCC(n2c3cnccc3c3cnc(Nc4ccc5c(n4)CCN(C(=O)CO)C5)nc32)CC1 (stereo unspecified) [AMG-925] (top concentration 1000 nM)	-0.66	9.24	5.54
Nc1cccc2c1CN(C1CCC(=O)NC1=O)C2=O (stereo unspecified) [Lenalidomide] (top concentration 100000 nM)	-2.28	-0.58	-1.28
Cn1ncc(Cl)c1-c1cc(C(=O)N[C@H](CN)Cc2cccc(F)c2)sc1Cl [Afuresertib] (top concentration 1000 nM)	-0.54	0.86	-1.34

SMILES	selective drug sensitivity score (MN-60)	selective drug sensitivity score (LC4-1)	selective drug sensitivity score (PEER)
Nc1nc(Cl)nc2c1ncn2[C@@H]1O[C@H](CO)[C@@H](O)[C@@H]1F [Clofarabine] (top concentration 10000 nM)	-7.1	9.2	-5.9
CN1CCN(c2nc(C3=C(c4c[nH]c5ccccc45)C(=O)NC3=O)c3ccccc3n2)CC1 [Sotrastaurin] (top concentration 10000 nM)	-2.3	1.7	4
O=c1[nH]c(C2CCCN2)nc2c1oc1ccc(Cl)cc12 (stereo unspecified) (top concentration 10000 nM)	-2.7	1.8	0.3
CN(C)CCOc1ccc(/C(=C(/CCCl)c2ccccc2)c2ccccc2)cc1 [Toremifene] (top concentration 10000 nM)	0.78	1.08	1.28
CC(=O)Nc1cccc(-n2c(=O)n(C3CC3)c(=O)c3c(Nc4ccc(I)cc4F)n(C)c(=O)c(C)c32)c1 [Trametinib] (top concentration 250 nM)	-8.04	2.46	-4.44
Cc1cc(Nc2ncc(Cl)c(Nc3ccccc3S(=O)(=O)C(C)C)n2)c(OC(C)C)cc1C1CCNCC1 [Ceritinib] (top concentration 2500 nM)	-2.64	3.06	-3.44
C=C1C[C@@H]2[C@H](CC[C@]3(C)C(=O)CC[C@@H]23)[C@@]2(C)C=CC(=O)C=C12 [Exemestane] (top concentration 10000 nM)	-1.9	3.6	-1.5
C=C(c1ccc(C(=O)O)cc1)c1cc2c(cc1C)C(C)(C)CCC2(C)C [Bexarotene] (top concentration 10000 nM)	-5.3	0.2	-3.8
CC1(COc2ccc3c(c2)ncn3-c2ccc3cccc(N4CCC(N)CC4)c3n2)COC1 [Crenolanib] (top concentration 10000 nM)	-3.42	-3.92	-1.52
O=C(Nc1ccncc1)C(=O)c1cn(Cc2ccc(Cl)cc2)c2ccccc12 [Indibulin] (top concentration 10000 nM)	1.84	17.3	11.7
Cc1c(C(=O)Nc2ccc(N3C[C@@H](C)O[C@@H](C)C3)nc2)cccc1-c1ccc(OC(F)(F)F)cc1 [Sonidegib] (top concentration 10000 nM)	-1.42	1.08	0.88
NS(=O)(=O)OC[C@@H]1C[C@@H](n2ccc3c(N[C@H]4CCc5ccccc54)ncnc32)C[C@@H]1O [Pevonedistat] (top concentration 10000 nM)	6.5	10	19.7
Cn1cnc2c(F)c(Nc3ccc(Br)cc3F)c(C(=O)NOCCO)cc21 [Binimetinib] (top concentration 1000 nM)	-2.22	2.18	0.58
NCC(=O)Nc1ccc(-n2nc(C(F)(F)F)cc2-c2ccc3c(ccc4ccccc43)c2)cc1 (top concentration 25000 nM)	18.9	2.7	9.9
CC1(C)CC[C@]2(NC(=O)C(C)(F)F)CC[C@]3(C)[C@H](C(=O)C=C4[C@@]5(C)C=C(C#N)C(=O)C(C)(C)[C@@H]5CC[C@]43C)[C@@H]2C1 [Omaveloxolone] (top concentration 10000 nM)	1.08	7.38	4.38
CNc1nc(-c2ccc3c(N)n[nH]c3c2)cc(N2C[C@@H](C(=O)NC3CCCCC3)CC[C@H]2C)n1 (top concentration 10000 nM)	2.96	0.76	-0.14
CCN(CC)Cc1ccc2cc(COC(=O)Nc3ccc(C(=O)NO)cc3)ccc2c1 [Givinostat] (top concentration 1000 nM)	-1.2	5.5	6.1
CC[C@H](Nc1ncnc2[nH]cnc12)c1nc2cccc(F)c2c(=O)n1-c1ccccc1 [Idelalisib] (top concentration 10000 nM)	-2.16	-0.16	-2.16
